# Measured values as given in PubChem BioAssay (NCI).
#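 Cultured in 96-well plates, cells were exposed to test compound for 48 hours across five concentrations. The concentration for 50% growth inhibition is given as GI50. TGI is the concentration that stops growth completely.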
# Legend:
# Experiment in all cases: growth of human tumour cells (NCI), 48 h
# 786-0 renal = tested on: 786-0 renal
# A498 renal = tested on: A498 renal
# A549 NSCLC = tested on: A549 NSCLC
# ACHN renal = tested on: ACHN renal
# BT-549 breast = tested on: BT-549 breast
# CAKI-1 renal = tested on: CAKI-1 renal
# CCRF-CEM leukemia = tested on: CCRF-CEM leukemia
# COLO 205 colon = tested on: COLO 205 colon
# DU-145 prostate = tested on: DU-145 prostate
# EKVX NSCLC = tested on: EKVX NSCLC
# HCC-2998 colon = tested on: HCC-2998 colon
# HCT-116 colon = tested on: HCT-116 colon
# HCT-15 colon = tested on: HCT-15 colon
# HL-60(TB) leukemia = tested on: HL-60(TB) leukemia
# HOP-62 NSCLC = tested on: HOP-62 NSCLC
# HOP-92 NSCLC = tested on: HOP-92 NSCLC
# HS 578T breast = tested on: HS 578T breast
# HT29 colon = tested on: HT29 colon
# IGROV1 ovarian = tested on: IGROV1 ovarian
# K-562 leukemia = tested on: K-562 leukemia
# KM12 colon = tested on: KM12 colon
# LOX IMVI melanoma = tested on: LOX IMVI melanoma
# M14 melanoma = tested on: M14 melanoma
# MALME-3M melanoma = tested on: MALME-3M melanoma
# MCF7 breast = tested on: MCF7 breast
# MDA-MB-435 = tested on: MDA-MB-435
# MDA-MB-468 breast = tested on: MDA-MB-468 breast
# MOLT-4 leukemia = tested on: MOLT-4 leukemia
# NCI-H226 lung = tested on: NCI-H226 lung
# NCI-H23 lung = tested on: NCI-H23 lung
# NCI-H460 lung = tested on: NCI-H460 lung
# NCI-H522 lung = tested on: NCI-H522 lung
# NCI/ADR-RES ovarian = tested on: NCI/ADR-RES ovarian
# OVCAR-3 ovarian = tested on: OVCAR-3 ovarian
# OVCAR-4 ovarian = tested on: OVCAR-4 ovarian
# OVCAR-5 ovarian = tested on: OVCAR-5 ovarian
# OVCAR-8 ovarian = tested on: OVCAR-8 ovarian
# PC-3 prostate = tested on: PC-3 prostate
# RPMI-8226 leukemia = tested on: RPMI-8226 leukemia
# RXF 393 renal = tested on: RXF 393 renal
# SF-268 CNS = tested on: SF-268 CNS
# SF-295 CNS = tested on: SF-295 CNS
# SF-539 CNS = tested on: SF-539 CNS
# SK-MEL-28 melanoma = tested on: SK-MEL-28 melanoma
# SK-MEL-5 melanoma = tested on: SK-MEL-5 melanoma
# SK-OV-3 ovarian = tested on: SK-OV-3 ovarian
# SN12C renal = tested on: SN12C renal
# SNB-19 CNS = tested on: SNB-19 CNS
# SR leukemia = tested on: SR leukemia
# SW-620 colon = tested on: SW-620 colon
# T-47D breast = tested on: T-47D breast
# TK-10 renal = tested on: TK-10 renal
# U251 CNS = tested on: U251 CNS
# UACC-257 melanoma = tested on: UACC-257 melanoma
# UACC-62 melanoma = tested on: UACC-62 melanoma
smiles,measurement,setting,value
CC(C)C[C@H](NC(=O)CNC(=O)C[C@H]1O[C@@H]2OC3(C)CC[C@H]4[C@H](C)CC[C@@H]([C@H]1C)[C@@]24OO3)B(O)O,GI50,786-0 renal,3.32 µM
same,TGI,786-0 renal,> 65 µM
same,GI50,A498 renal,5.48 µM
same,TGI,A498 renal,> 65 µM
same,GI50,A549 NSCLC,3.03 µM
same,TGI,A549 NSCLC,> 65 µM
same,GI50,ACHN renal,4.75 µM
same,TGI,ACHN renal,> 65 µM
same,GI50,BT-549 breast,0.261 µM
same,TGI,BT-549 breast,1.22 µM
same,GI50,CAKI-1 renal,24.3 µM
same,TGI,CAKI-1 renal,> 65 µM
same,GI50,CCRF-CEM leukemia,0.251 µM
same,TGI,CCRF-CEM leukemia,2.74 µM
same,GI50,COLO 205 colon,2.64 µM
same,TGI,COLO 205 colon,13.8 µM
same,GI50,DU-145 prostate,7.32 µM
same,TGI,DU-145 prostate,> 65 µM
same,GI50,EKVX NSCLC,5.95 µM
same,TGI,EKVX NSCLC,> 65 µM
same,GI50,HCC-2998 colon,1.17 µM
same,TGI,HCC-2998 colon,2.21 µM
same,GI50,HCT-116 colon,0.437 µM
same,TGI,HCT-116 colon,1.75 µM
same,GI50,HCT-15 colon,5.52 µM
same,TGI,HCT-15 colon,16.5 µM
same,GI50,HL-60(TB) leukemia,0.21 µM
same,TGI,HL-60(TB) leukemia,4.62 µM
same,GI50,HOP-62 NSCLC,3.05 µM
same,TGI,HOP-62 NSCLC,14.7 µM
same,GI50,HOP-92 NSCLC,1.5 µM
same,TGI,HOP-92 NSCLC,4.9 µM
same,GI50,HS 578T breast,1.91 µM
same,TGI,HS 578T breast,> 65 µM
same,GI50,HT29 colon,0.983 µM
same,TGI,HT29 colon,3.46 µM
same,GI50,IGROV1 ovarian,2.69 µM
same,TGI,IGROV1 ovarian,13.8 µM
same,GI50,K-562 leukemia,1.92 µM
same,TGI,K-562 leukemia,> 65 µM
same,GI50,KM12 colon,1.67 µM
same,TGI,KM12 colon,4.45 µM
same,GI50,LOX IMVI melanoma,0.753 µM
same,TGI,LOX IMVI melanoma,1.68 µM
same,GI50,M14 melanoma,1.24 µM
same,TGI,M14 melanoma,3.46 µM
same,GI50,MALME-3M melanoma,0.719 µM
same,TGI,MALME-3M melanoma,2.79 µM
same,GI50,MCF7 breast,0.349 µM
same,TGI,MCF7 breast,> 65 µM
same,GI50,MDA-MB-435,0.275 µM
same,TGI,MDA-MB-435,1.69 µM
same,GI50,MDA-MB-468 breast,0.341 µM
same,TGI,MDA-MB-468 breast,1.56 µM
same,GI50,MOLT-4 leukemia,0.267 µM
same,TGI,MOLT-4 leukemia,5.19 µM
same,GI50,NCI-H226 lung,0.455 µM
same,TGI,NCI-H226 lung,1.5 µM
same,GI50,NCI-H23 lung,1.68 µM
same,TGI,NCI-H23 lung,8.45 µM
same,GI50,NCI-H460 lung,3.54 µM
same,TGI,NCI-H460 lung,18.9 µM
same,GI50,NCI-H522 lung,0.531 µM
same,TGI,NCI-H522 lung,1.67 µM
same,GI50,NCI/ADR-RES ovarian,55.3 µM
same,TGI,NCI/ADR-RES ovarian,> 65 µM
same,GI50,OVCAR-3 ovarian,0.583 µM
same,TGI,OVCAR-3 ovarian,3.12 µM
same,GI50,OVCAR-4 ovarian,3.04 µM
same,TGI,OVCAR-4 ovarian,> 65 µM
same,GI50,OVCAR-5 ovarian,1.68 µM
same,TGI,OVCAR-5 ovarian,10.3 µM
same,GI50,OVCAR-8 ovarian,1.99 µM
same,TGI,OVCAR-8 ovarian,8.04 µM
same,GI50,PC-3 prostate,2.52 µM
same,TGI,PC-3 prostate,57.8 µM
same,GI50,RPMI-8226 leukemia,0.184 µM
same,TGI,RPMI-8226 leukemia,0.604 µM
same,GI50,RXF 393 renal,0.162 µM
same,TGI,RXF 393 renal,0.556 µM
same,GI50,SF-268 CNS,2.39 µM
same,TGI,SF-268 CNS,> 65 µM
same,GI50,SF-295 CNS,2.17 µM
same,TGI,SF-295 CNS,9.46 µM
same,GI50,SF-539 CNS,0.37 µM
same,TGI,SF-539 CNS,1.54 µM
same,GI50,SK-MEL-28 melanoma,0.716 µM
same,TGI,SK-MEL-28 melanoma,3.37 µM
same,GI50,SK-MEL-5 melanoma,1.09 µM
same,TGI,SK-MEL-5 melanoma,2.27 µM
same,GI50,SK-OV-3 ovarian,4.13 µM
same,TGI,SK-OV-3 ovarian,38.2 µM
same,GI50,SN12C renal,1.92 µM
same,TGI,SN12C renal,7.92 µM
same,GI50,SNB-19 CNS,3.44 µM
same,TGI,SNB-19 CNS,> 65 µM
same,GI50,SR leukemia,0.188 µM
same,TGI,SR leukemia,0.805 µM
same,GI50,SW-620 colon,0.437 µM
same,TGI,SW-620 colon,8.24 µM
same,GI50,T-47D breast,0.771 µM
same,TGI,T-47D breast,2.93 µM
same,GI50,TK-10 renal,2.34 µM
same,TGI,TK-10 renal,51.4 µM
same,GI50,U251 CNS,2.39 µM
same,TGI,U251 CNS,14.5 µM
same,GI50,UACC-257 melanoma,0.818 µM
same,TGI,UACC-257 melanoma,2.14 µM
same,GI50,UACC-62 melanoma,0.958 µM
same,TGI,UACC-62 melanoma,2.21 µM
